In the assay the test system is HsmiR155. In words: Relative expression of Pre-miR155 in transfected HeLa cells. It counts as cell-based, Homo sapiens. As to conditions: HeLa cells transfected to overexpress HsmiPEP155. The source says: The DNA fragments of interest (HsmiPEP155 and the mutated miPEP) were synthesized or amplified by PCR using specific primers, and then cloned using the enzymes XhoI and NotI into a pUAS plasmid permitting their overexpression by means of the GAL4 transcription factor, the expression of which is controlled by a constitutive strong promoter.
The different constructs were produced either by PCR amplification on genomic DNA of HeLa cells, or by RT-PCR on total RNAs of L428 human cells. The amplified PCR fragments are digested with the HindIII/EcoRI restriction enzymes and then cloned into the vector pcDNA3.1. The DH5α strain of Escherichia coli is electroporated and then cultured on a solid medium (2YT+agar+ampicillin). The plasmid DNA from different clones is then prepared and sequenced for verification. The constructs are then prepared using the QIAfilter Plasmid Midi kit (QIAGEN) and stored at −20° C.
The HeLa cells (established tumour line, ATCC CCL-2.2) are cultured in a 6-well plate in complete medium [(DMEM (1x)+Glutamax+4.5 g/L glucose without pyruvate+1x penicillin/streptomycin+1 mM Na-pyruvate+10% calf serum] and placed in an incubator at 37° C. and 5% CO2.
The cells are transfected when they are at 50% confluence. […]
10-15 μg of total RNAs is then analysed by Northern blot on 15% acrylamide gel [solution of acrylamide/40% bis-acrylamide, ratio 19:1], 7M urea in TBE 1x. […]

As to “MEMALMVAQTRKGKSVV (listed as Homo sapiens) [HsmiPEP155]”, the “relative expression of Pre-miR155” value was “increases the expression of HsmiR155”.

These data come from US20160251402A1, “MICROPEPTIDES AND USE OF SAME FOR MODULATING GENE EXPRESSION” (UNIVERSITE PAUL SABATIER TOULOUSE III, priority 2013, published 2016).
